Experimental findings from patent publication EP0996337B1, “A PROCESS OF DELIVERING A POLY[…] THE VASCULAR SYSTEM” (Mirus Bio Corporation, priority 1997, dated 1998) are described below.

This data set is described as follows: Serum ALT and GGT after injections in mice. The class given is in vivo. To be noted: positive control, one day after intraperitoneal injection of 40 µl of 50% in mineral oil, n=4. How it is done:
Blood obtained from the retro-orbit sinus was analyzed for serum concentration of hGH using the RIA, HGH-TGES 100T kit from Nichols Institute (San Juan Capistrano, CA). Serum ALT and GGT levels were done using EKTACHEM DT slides and a KODAK EKTACHEM DT 60 ANALYZER as recommended by the manufacturer (Kodak. Rochester, NY)
Similar results were also obtained when bile ducts were injected with 100 µg of pCILuc in 1 ml of 15% mannitol and 2.5 units heparin/ml in normal saline solution. A mean total luciferase protein/liver of 15.39 µg/liver (Fig. 1A. BD+CL) was obtained when the hepatic vein was clamped as compared to a mean total luciferase protein/liver of 1.33 µg/liver (Fig 1A. BD-CL) without occluding the hepatic vein If mannitol was omitted then the bile duct injections without clamping any blood vessels yielded approximately 15-fold less luciferase (0 086 µg/liver ± 0.06, n = 25). […] Serum ALT and GGT assays were performed on mice one and eight days after each of the above injections with pCILuc (4 mice for each condition). No increases in […] were observed after any of the injections including the bile duct injections. Serum ALT levels increased to 200-400 U/L one day after portal vein and bile duct injections. One day after IVC injections serum ALT levels increased to ∼1500 U/L in half of the mice but was only ∼250 U/L in the other half. […]

As to `ClC(Cl)(Cl)Cl` [carbon tetrachloride], the “Serum ALT, average” value is reported as 25,900 U/L.
